Measured values published in ChEMBL document CHEMBL1201862, “PubChem BioAssay data set” (2004).
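Where inhibition never reached the appropriate level, the endpoint shown equals the highest concentration tested. Otherwise, values were interpolated linearly from a five-concentration, 48-hour dose response in 96-well plates. At the GI50, growth is halved.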 Activity calls are given as the source filed them. Rule as the data show it: active = GI50 up to about 1.1 µM and inactive = higher. Where a SMILES comes first, the peptide text is derived from it. Peptide text beside a SMILES is read from it. [ ]: non-standard residue; d: D form. The star is where a group is joined. ξ: configuration not given here. ξD = NC(CC(=O)O)C(=O)O; Ac3c = NC1(C(=O)O)CC1; Boc = CC(C)(C)OC(=O)*; OBn = c1ccc(CO*)cc1

Legend:
Test in all cases: NCI-60 cell line screen, 48 h
SN12C = test system: SN12C
Hs-578T = test system: Hs-578T
DU-145 = test system: DU-145
MDA-MB-231 = test system: MDA-MB-231
PC-3 = test system: PC-3
OVCAR-8 = test system: OVCAR-8
SF-539 = test system: SF-539
T47D = test system: T47D
MDA-N = test system: MDA-N
HT-29 = test system: HT-29
SK-OV-3 = test system: SK-OV-3
CAKI-1 = test system: CAKI-1
OVCAR-3 = test system: OVCAR-3
K562 = test system: K562
MDA-MB-435 = test system: MDA-MB-435
KM12 = test system: KM12
MOLT-4 = test system: MOLT-4
UACC-62 = test system: UACC-62
HCC 2998 = test system: HCC 2998

Measured: GI50

Cc1nc(O)c(O)c(CN2CCCCC2)n1
inactive: SN12C > 100 µM | Hs-578T > 100 µM | DU-145 > 100 µM | MDA-MB-231 > 100 µM | PC-3 > 100 µM | OVCAR-8 > 100 µM | SF-539 > 100 µM | T47D > 100 µM | MDA-N > 100 µM | HT-29 > 100 µM | SK-OV-3 > 100 µM | CAKI-1 > 100 µM | OVCAR-3 > 100 µM | K562 > 100 µM | MDA-MB-435 > 100 µM | KM12 > 100 µM | MOLT-4 > 100 µM | UACC-62 > 100 µM

COC(=O)c1onc(C2OC(C)(C)OC2C(O)COC(c2ccccc2)(c2ccccc2)c2ccccc2)c1C(=O)OC (centres undefined)
inactive: SN12C > 100 µM | Hs-578T > 100 µM | DU-145 > 100 µM | MDA-MB-231 71.8 µM | PC-3 44.7 µM | OVCAR-8 > 100 µM | SF-539 > 100 µM | T47D > 100 µM | MDA-N > 100 µM | HT-29 > 100 µM | HCC 2998 > 100 µM | OVCAR-3 87.5 µM | K562 72.8 µM | MDA-MB-435 89.5 µM | KM12 > 100 µM | MOLT-4 29.4 µM | UACC-62 43.6 µM

C1=C(c2ccccc2)Nc2nnnn2C1c1ccccc1 (centres undefined)
inactive: SN12C 71.3 µM | Hs-578T 37.5 µM | DU-145 26.9 µM | MDA-MB-231 > 100 µM | PC-3 53.2 µM | OVCAR-8 34.9 µM | SF-539 25.1 µM | T47D 47.1 µM | MDA-N 20.1 µM | HT-29 17.4 µM | SK-OV-3 58.1 µM | CAKI-1 47.6 µM | OVCAR-3 > 100 µM | K562 21.4 µM | MDA-MB-435 11.1 µM | KM12 13.5 µM | MOLT-4 22 µM | UACC-62 46.2 µM

CC(=O)NC(CS)C(=O)NC(CO)C(=O)NC(CO)C(=O)NC(Cc1c[nH]c2ccccc12)C(=O)N1CCCC1C(=O)NC(CO)C(=O)NC(Cc1c[nH]c2ccccc12)C(=O)NC(Cc1c[nH]cn1)C(=O)NC(CO)C(=O)NC(Cc1c[nH]c2ccccc12)C(=O)NCC(=O)NCC(=O)NC(C)C(=O)NC(CCC(N)=O)C(=O)NC(CCCCN)C(=O)NC(C)C(=O)NC(CCCNC(=N)N)C(=O)NC(CCCCN)C(N)=O (centres undefined) (Ac-CSSWPSWHSWGGAQKARK-NH2; configuration not given here)
inactive: SN12C 43 µM | Hs-578T 29.2 µM | DU-145 16.8 µM | MDA-MB-231 8.49 µM | PC-3 > 50 µM | OVCAR-8 42.6 µM | SF-539 17.1 µM | T47D 11 µM | MDA-N 19.1 µM | HT-29 > 50 µM | SK-OV-3 > 50 µM | CAKI-1 11.9 µM | OVCAR-3 > 50 µM | K562 10.3 µM | MDA-MB-435 15.7 µM | KM12 11.6 µM | MOLT-4 29.8 µM | UACC-62 10.9 µM

COC(=O)C1(NC(=O)C(CC(=O)OCc2ccccc2)NC(=O)OC(C)(C)C)CC1 (centres undefined) (Boc-[ξD](OBn)-[Ac3c]-OMe)
inactive: SN12C > 100 µM | Hs-578T > 100 µM | DU-145 > 100 µM | MDA-MB-231 > 100 µM | PC-3 > 100 µM | OVCAR-8 > 100 µM | SF-539 > 100 µM | T47D > 100 µM | MDA-N > 100 µM | HT-29 > 100 µM | SK-OV-3 19.6 µM | CAKI-1 > 100 µM | OVCAR-3 > 100 µM | K562 > 100 µM | MDA-MB-435 > 100 µM | KM12 > 100 µM | MOLT-4 > 100 µM | UACC-62 1.58 µM
